Results reported in patent US20070275967A1, “Pyrazolinols” (BAYER CROPSCIENCE AKTIENGESELLSCHAFT, priority 2003, published 2007).

Test: logP determination by HPLC on reversed-phase column (EEC Directive 79/831 Annex V.A8)
Assay type: physicochemical
Conditions: acidic range (pH 2.3), marked a); 0.1% aqueous phosphoric acid/acetonitrile gradient; reversed-phase C 18; 43° C.
Procedure: The logP values given in the table were determined in accordance with EEC Directive 79/831 Annex V.A8 by HPLC (High Performance Liquid Chromatography) on a reversed-phase column (C 18). Temperature: 43° C. (a) Mobile phases for the determination in the acidic range (pH 2.3): 0.1% aqueous phosphoric acid, acetonitrile; linear gradient from 10% acetonitrile to 90% acetonitrile—the corresponding measurement results in table 1 are marked a). (b) Mobile phases for the determination in the neutral range (pH 7.5): 0.01-molar aqueous phosphate buffer solution, acetonitrile; linear gradient from 10% acetonitrile to 90% acetonitrile—the corresponding measurement results in table 1 are marked b). Calibration was carried out using unbranched alkan-2-ones (having 3 to 16 carbon atoms) with known logP values (determination of the logP values by the retention times using linear interpolation between two successive alkanones).

Row | Compound | logP
1 | CC(C)CC1=NN(C(=S)Nc2ccccc2F)C(O)(C(F)(F)F)C1 (racemic) [Example 11] | logP = 4.23^a)
2 | CC(C)C1=NN(C(=O)Nc2ccc(OC(F)(F)F)cc2)C(O)(C(F)(F)F)C1 (racemic) [Example 17] | logP = 4.09^a)
3 | CC1=NN(C(=S)Nc2cccc(Cl)c2Cl)C(O)(C(F)(F)F)C1 (centres unmarked) [Example 103] | logP = 3.75^a)
4 | CC(C)C1=NN(C(=O)Nc2ccccc2)C(O)(C(F)(F)F)C1 (racemic) [Example 28] | logP = 3.32^a)
5 | CC(C)C1=NN(C(=O)Nc2ccc(Cl)cc2)C(O)(C(F)(F)F)C1 (racemic) [Example 18] | logP = 3.79^a)
6 | CC(C)(C)C1=NN(C(=O)Nc2ccc(Cl)cc2)C(O)(C(F)F)C1 (centres unmarked) [Example 144] | logP = 3.72^a)
7 | CC(C)C1=NN(C(=S)NCc2ccco2)C(O)(C(F)(F)F)C1 (racemic) [Example 41] | logP = 3.78^a)
8 | CC(C)CC1=NN(C(=S)Nc2ccccc2)C(O)(C(F)(F)F)C1 (racemic) [Example 7] | logP = 4.31^a)
9 | O=C(Nc1ccc(Cl)cc1)N1N=C(c2ccco2)CC1(O)C(F)(F)F (centres unmarked) [Example 80] | logP = 3.41^a)
10 | CC(C)CC1=NN(C(=O)Nc2ccccc2)C(O)(C(F)(F)F)C1 (racemic) [Example 3] | logP = 3.72^a)
11 | CC(C)(C)C1=NN(C(=S)NCc2ccc(Cl)cc2)C(O)(C(Cl)(Cl)Cl)C1 (centres unmarked) [Example 130] | logP = 2.72^a)
12 | CCC1=NN(C(=S)Nc2c(F)cccc2F)C(O)(C(F)(F)F)C1 (centres unmarked) [Example 84] | logP = 3.30^a)
13 | CC1=NN(C(=S)Nc2cc(C(F)(F)F)ccc2Cl)C(O)(C(F)(F)F)C1 (centres unmarked) [Example 107] | logP = 3.94^a)
14 | CCC1=NN(C(=O)Nc2ccccc2)C(O)(C(F)(F)F)C1 (racemic) [Example 39] | logP = 2.91^a)
15 | CCC1=NN(C(=O)NCc2ccc(Cl)c(Cl)c2)C(O)(C(F)(F)F)C1 (centres unmarked) [Example 97] | logP = 4.34^a)
16 | OC1(C(F)(F)F)CC(C2(Cl)CC2)=NN1C(=S)Nc1ccc(C(F)(F)F)cc1 (centres unmarked) [Example 78] | logP = 4.41^a)
17 | CCC1=NN(C(=S)Nc2cc(C(F)(F)F)ccc2Cl)C(O)(C(F)(F)F)C1 (centres unmarked) [Example 90] | logP = 4.51^a)
18 | CCC1=NN(C(=S)Nc2cccc(Cl)c2Cl)C(O)(C(F)(F)F)C1 (centres unmarked) [Example 87] | logP = 4.29^a)
19 | CCC1=NN(C(=O)Nc2ccc(Cl)cc2)C(O)(C(F)(F)F)C1 (racemic) [Example 13] | logP = 3.41^a)
20 | CC1=NN(C(=S)NCc2ccc(Cl)c(Cl)c2)C(O)(C(F)(F)F)C1 (centres unmarked) [Example 113] | logP = 4.26^a)
21 | CC(C)CC1=NN(C(=O)Nc2ccc(Cl)cc2)C(O)(C(F)(F)F)C1 (racemic) [Example 5] | logP = 4.18^a)
22 | CCC1=NN(C(=S)Nc2c(F)cc(F)cc2F)C(O)(C(F)(F)F)C1 (centres unmarked) [Example 89] | logP = 3.52^a)
23 | CCC1=NN(C(=S)Nc2ccccc2OC)C(O)(C(F)(F)F)C1 (centres unmarked) [Example 91] | logP = 3.85^a)

Row | Compound | logP
24 | CC(C)(C)C1=NN(C(=O)Nc2ccc(Cl)cc2)C(O)(C(F)(F)C(F)(F)C(F)(F)F)C1 (centres unmarked) [Example 140] | logP = 5.20^a)
25 | CC(C)C1=NN(C(=O)Nc2ccccn2)C(O)(C(F)(F)F)C1 (racemic) [Example 48] | logP = 1.78^a)
26 | CC(C)C1=NN(C(=O)Nc2cccnc2)C(O)(C(F)(F)F)C1 (racemic) [Example 47] | logP = 1.15^a)
27 | CC(C)C1=NN(C(=S)Nc2cccnc2)C(O)(C(F)(F)F)C1 (racemic) [Example 35] | logP = 1.96^a)
28 | CCC1=NN(C(=O)Nc2ccc(F)cc2)C(O)(C(F)(F)F)C1 (centres unmarked) [Example 50] | logP = 2.96^a)
29 | CC(C)(C)C1=NN(C(=O)NCc2ccccc2Cl)C(O)(C(F)(F)F)C1 (centres unmarked) [Example 72] | logP = 3.97^a)
30 | CCC1=NN(C(=S)Nc2ccc(Oc3ccccc3)cc2)C(O)(C(F)(F)F)C1 (centres unmarked) [Example 88] | logP = 4.52^a)
31 | CC1=NN(C(=S)Nc2ccc(Oc3ccccc3)cc2)C(O)(C(F)(F)F)C1 (centres unmarked) [Example 104] | logP = 4.15^a)
32 | COc1ccccc1NC(=S)N1N=C(C)CC1(O)C(F)(F)F (centres unmarked) [Example 108] | logP = 3.36^a)
33 | OC1(C(F)(F)F)CC(c2ccco2)=NN1C(=S)Nc1ccc(Cl)cc1 (centres unmarked) [Example 81] | logP = 3.99^a)
34 | CC(C)CC1=NN(C(=O)Nc2ccc(Cl)c(Cl)c2)C(O)(C(F)(F)F)C1 (racemic) [Example 4] | logP = 4.63^a)
35 | CCC1=NN(C(=S)Nc2cc(Cl)ccc2Cl)C(O)(C(F)(F)F)C1 (centres unmarked) [Example 85] | logP = 4.47^a)
36 | CC(C)(C)C1=NN(C(=O)NC2CCCCC2)C(O)(C(F)(F)F)C1 (centres unmarked) [Example 66] | logP = 3.68^a)
37 | CC1=NN(C(=S)Nc2c(F)cc(F)cc2F)C(O)(C(F)(F)F)C1 (centres unmarked) [Example 105] | logP = 3.12^a)
38 | CCC1=NN(C(=S)Nc2ccccc2F)C(O)(C(F)(F)F)C1 (centres unmarked) [Example 98] | logP = 3.51^a)
39 | CC1=NN(C(=S)Nc2ccccc2F)C(O)(C(F)(F)F)C1 (centres unmarked) [Example 120] | logP = 3.05^a)
40 | CCC1=NN(C(=S)Nc2ccc(Cl)cc2Cl)C(O)(C(F)(F)F)C1 (centres unmarked) [Example 57] | logP = 4.53^a)
41 | CC1=NN(C(=O)Nc2ccc(F)cc2)C(O)(C(F)(F)F)C1 (centres unmarked) [Example 117] | logP = 2.70^a)
42 | CC1=NN(C(=O)Nc2ccc(Cl)c(Cl)c2)C(O)(C(F)(F)F)C1 (centres unmarked) [Example 116] | logP = 3.84^a)
43 | CC1=NN(C(=S)Nc2cc(Cl)cc(Cl)c2)C(O)(C(F)(F)F)C1 (centres unmarked) [Example 109] | logP = 4.18^a)
44 | CCC1=NN(C(=S)Nc2ccccc2)C(O)(C(F)(F)F)C1 (racemic) [Example 38] | logP = 3.57^a)
45 | CCC1=NN(C(=O)Nc2ccc(Cl)cc2)C(O)(C(F)(F)F)C1 (racemic) [Example 49] | logP = 3.43^a)
46 | CCC1=NN(C(=O)Nc2cc(Cl)cc(Cl)c2)C(O)(C(F)(F)F)C1 (centres unmarked) [Example 76] | logP = 4.34^a)

Next, values leading:

Row | logP | Compound
47 | logP = 5.50^a) | CC(C)CC1=NN(C(=S)Nc2ccc(C(C)(C)C)cc2)C(O)(C(F)(F)F)C1 (racemic) [Example 25]
48 | logP = 4.31^a) | CCC1=NN(C(=S)Nc2ccc(OC(F)(F)F)cc2)C(O)(C(F)(F)F)C1 (centres unmarked) [Example 95]
49 | logP = 4.84^a) | CCC1=NN(C(=S)Nc2ccc(C(C)(C)C)cc2)C(O)(C(F)(F)F)C1 (racemic) [Example 16]
50 | logP = 4.77^a) | CC(C)(C)C1=NN(C(=O)Nc2ccc(Cl)cc2)C(O)(C(F)(F)C(F)(F)F)C1 (centres unmarked) [Example 134]
51 | logP = 3.54^a) | COc1ccc(NC(=S)N2N=C(C(C)(C)C)CC2(O)C(F)(F)F)cc1 (centres unmarked) [Example 61]
52 | logP = 4.58^a) | CC(C)(C)C1=NN(C(=O)Nc2ccccc2)C(O)(C(F)(F)F)C1 (centres unmarked) [Example 65]
53 | logP = 4.62^a) | Cc1ccc(NC(=S)N2N=C(C(C)(C)C)CC2(O)C(F)(F)F)cc1 (centres unmarked) [Example 62]
54 | logP = 4.50^a) | CC(C)(C)C1=NN(C(=S)Nc2ccc(Cl)cc2)C(O)(C(F)F)C1 (centres unmarked) [Example 142]
55 | logP = 2.06^a) | CC1=NN(C(=S)Nc2ccc(F)cc2)C(O)(C(F)(F)F)C1 (centres unmarked) [Example 110]
56 | logP = 4.45^a) | CC1=NN(C(=S)Nc2ccc(C(C)(C)C)cc2)C(O)(C(F)(F)F)C1 (centres unmarked) [Example 121]
57 | logP = 3.94^a) | CC(C)(C)C1=NN(C(=O)NCc2ccc(Cl)cc2)C(O)(C(F)(F)F)C1 (centres unmarked) [Example 71]
58 | logP = 4.03^a) | CC(C)(C)C1=NN(C(=S)Nc2ccc(Cl)cc2)C(O)(C(Cl)(Cl)Cl)C1 (centres unmarked) [Example 129]
59 | logP = 4.62^a) | CC(C)(C)C1=NN(C(=O)Nc2ccc(Cl)c(Cl)c2)C(O)(C(F)(F)F)C1 (centres unmarked) [Example 59]
60 | logP = 4.48^a) | CC(C)(C)C1=NN(C(=O)Nc2ccccc2Cl)C(O)(C(F)(F)F)C1 (centres unmarked) [Example 69]
61 | logP = 4.17^a) | COc1ccc(NC(=S)N2N=C(CC(C)C)CC2(O)C(F)(F)F)cc1 (racemic) [Example 23]
62 | logP = 3.62^a) | CCC1=NN(C(=S)Nc2ccc(F)cc2)C(O)(C(F)(F)F)C1 (centres unmarked) [Example 93]
63 | logP = 4.27^a) | CCC1=NN(C(=S)Nc2ccc(C(F)(F)F)cc2)C(O)(C(F)(F)F)C1 (centres unmarked) [Example 54]
64 | logP = 3.18^a) | CC1=NN(C(=S)Nc2cccc(F)c2)C(O)(C(F)(F)F)C1 (centres unmarked) [Example 111]
65 | logP = 4.85^a) | CCC1=NN(C(=S)Nc2ccc(C(C)(C)C)cc2)C(O)(C(F)(F)F)C1 (centres unmarked) [Example 99]
66 | logP = 3.47^a) | CCC1=NN(C(=S)Nc2ccc(OC)cc2)C(O)(C(F)(F)F)C1 (centres unmarked) [Example 86]
67 | logP = 3.34^a) | CC(C)(C)C1=NN(C(=O)Nc2ccc(C#N)cc2)C(O)(C(F)(F)F)C1 (centres unmarked) [Example 60]
68 | logP = 5.32^a) | CC(C)(C)C1=NN(C(=S)NCc2ccc(Cl)cc2)C(O)(C(F)(F)C(F)(F)F)C1 (centres unmarked) [Example 132]
69 | logP = 4.41^a) | CC(C)(C)C1=NN(C(=O)Nc2ccc(OC(F)(F)F)cc2)C(O)(C(F)(F)F)C1 (centres unmarked) [Example 67]
70 | logP = 4.36^a) | OC1(C(F)(F)F)CC(C2(Cl)CC2)=NN1C(=S)Nc1ccc(Cl)cc1 (centres unmarked) [Example 79]
71 | logP = 3.49^a) | CC1=NN(C(=S)Nc2ccc(C)cc2)C(O)(C(F)(F)F)C1 (centres unmarked) [Example 119]
72 | logP = 3.89^a) | CC1=NN(C(=S)Nc2ccc(OC(F)(F)F)cc2)C(O)(C(F)(F)F)C1 (centres unmarked) [Example 112]
73 | logP = 5.57^a) | CC(C)(C)C1=NN(C(=S)Nc2ccc(Cl)cc2)C(O)(C(F)(F)C(F)(F)C(F)(F)F)C1 (centres unmarked) [Example 138]
74 | logP = 5.19^a) | CC(C)(C)C1=NN(C(=S)Nc2ccc(Cl)cc2)C(O)(C(F)(F)C(F)(F)F)C1 (centres unmarked) [Example 135]
